# Values quoted from earlier work in US20040143855A1, “Ion channels as targets for sleep-related drugs” (priority 2002, published 2004).
# Experiments:
# Drosophila = conditions: flies given the drug
# TREK-1 = target: T1, TREK-1 (Homo sapiens, UniProt O95069); conditions: volatile general anesthetics
# T1 sequence (O95069 1-426): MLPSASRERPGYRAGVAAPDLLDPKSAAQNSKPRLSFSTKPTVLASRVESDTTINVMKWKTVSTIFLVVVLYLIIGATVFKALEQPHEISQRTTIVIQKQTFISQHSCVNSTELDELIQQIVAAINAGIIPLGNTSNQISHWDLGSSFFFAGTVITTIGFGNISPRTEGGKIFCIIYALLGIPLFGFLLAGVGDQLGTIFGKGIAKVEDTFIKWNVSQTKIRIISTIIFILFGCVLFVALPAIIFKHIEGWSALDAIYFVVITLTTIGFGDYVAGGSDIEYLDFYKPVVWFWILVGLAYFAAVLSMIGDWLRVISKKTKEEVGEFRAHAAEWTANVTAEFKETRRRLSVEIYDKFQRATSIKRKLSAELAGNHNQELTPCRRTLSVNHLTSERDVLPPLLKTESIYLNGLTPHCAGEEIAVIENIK
SMILES,sleep (amount) (Drosophila),effect on TREK-1 channel (TREK-1),sleep latency (Drosophila)
Cn1c(=O)c2c(ncn2C)n(C)c1=O [caffeine],dose-dependent decrease in sleep,,
ClC(Cl)Cl [chloroform],,activated,
CCOCC [diethylether],,activated,
FC(F)(F)C(Cl)Br (stereo not shown) [halothane],,activated,
OCCOCCN1CCN(C(c2ccccc2)c2ccc(Cl)cc2)CC1 (stereo not shown) [hydroxyzine],increased sleep,,reduced its latency
FC(F)OC(Cl)C(F)(F)F (stereo not shown) [isoflurane],,activated,
